# Data published in ChEMBL document CHEMBL5120779, “Thiazolidinedione-Based Structure Modification of Celastrol Provides Thiazolidinedione-Conjugated Derivatives as Potent Agents against Non-Small-Cell Lung Cancer Cells through a Mitochondria-Mediated Apoptotic Pathway” (J Nat Prod, 2022).
# The source made the active and inactive calls. The rule behind the calls is not given here.
# Tests used:
# A549 [1] = assay: Induction of mitochondrial membrane potential depolarization in human A549 cells assessed as proportion of cells with intact mitochondria by measuring red fluorescent J-aggregates at 0.25 uM incubated for 48 hrs by JC-1 staining based flow cytometry (reference value: 63.9%); format: functional
# A549 [2] = assay: Induction of mitochondrial membrane potential depolarization in human A549 cells assessed as proportion of cells with intact mitochondria by measuring red fluorescent J-aggregates at 0.125 uM incubated for 48 hrs by JC-1 staining based flow cytometry (reference value: 63.9%); format: functional
# A549 [3] = assay: Induction of mitochondrial membrane potential depolarization in human A549 cells assessed as proportion of cells with depolarized mitochondria by measuring green fluorescent J-monomers at 0.5 uM incubated for 48 hrs by JC-1 staining based flow cytometry (reference value: 34.2%); format: functional
# A549 [4] = assay: Induction of mitochondrial membrane potential depolarization in human A549 cells assessed as proportion of cells with depolarized mitochondria by measuring green fluorescent J-monomers at 0.25 uM incubated for 48 hrs by JC-1 staining based flow cytometry (reference value: 34.2%); format: functional
# A549 [5] = assay: Induction of mitochondrial membrane potential depolarization in human A549 cells assessed as proportion of cells with depolarized mitochondria by measuring green fluorescent J-monomers at 0.125 uM incubated for 48 hrs by JC-1 staining based flow cytometry (reference value: 34.2%); format: functional
# A549 [6] = assay: Induction of apoptosis in human A549 cells assessed as necrotic cells at 0.5 uM incubated for 48 hrs by Annexin V-FITC/propidium iodide staining based flow cytometry (reference value: 3.36%); format: functional
# A549 [7] = assay: Induction of apoptosis in human A549 cells assessed as late apoptotic cells at 0.5 uM incubated for 48 hrs by Annexin V-FITC/propidium iodide staining based flow cytometry (reference value: 0.82%); format: functional
# A549 [8] = assay: Induction of apoptosis in human A549 cells assessed as early apoptotic cells at 0.5 uM incubated for 48 hrs by Annexin V-FITC/propidium iodide staining based flow cytometry (reference value: 0.11%); format: functional
# [9] = Cytotoxicity against human MRC5 cells assessed as inhibition of cell growth measured after 96 hrs by MTT assay; format: toxicity, cell-based
# [10] = Selectivity index, ratio of IC50 for human MRC5 cells to IC50 for human A549 cells; format: toxicity; conditions: MRC5 cells and A549 cells, read-out: Ratio IC50
# A549 [11] = assay: Potency index, ratio of celastrol IC50 to test compound IC50 for cytotoxicity against human A549 cells by MTT assay; format: functional
# [12] = Stability of the compound in DMEM culture medium at 100 ug/ml measured after 72 hrs by HPLC analysis; format: physicochemical; conditions: at 100 µg/mL
# A549 [13] = assay: Cytotoxicity against human A549 cells assessed as inhibition of cell proliferation at 0.125 to 2 uM by MTT assay; format: functional, cell-based; conditions: dose 0.125-2 µM, time 24-72 hrs, TDE = time-dependent effect
# A549 [14] = assay: Cytotoxicity against human A549 cells assessed as inhibition of cell proliferation measured after 24 to 72 hrs by MTT assay; format: functional, cell-based; conditions: dose 0.125-2 µM, time 24-72 hrs, DDE = dose-dependent effect
# A549 [15] = assay: Cytotoxicity against human A549 cells assessed as inhibition of cell proliferation at 0.1 uM pretreated for 2 hrs with necroptosis inhibitor, necrostatin-1 followed by incubation with compound and measured after 48 hrs by MTT assay; format: functional, cell-based
# A549 [16] = assay: Cytotoxicity against human A549 cells assessed as inhibition of cell proliferation at 0.1 uM pretreated for 2 hrs with autophagy inhibitor, 3-methyladenine followed by incubation with compound and measured after 48 hrs by MTT assay; format: functional, cell-based
# A549 [17] = assay: Induction of apoptosis in human A549 cells assessed as nuclear fragmentation and chromatin condensation incubated for 48 hrs by Hoechst 33342 staining based fluorescence microscopic analysis; format: functional, cell-based; conditions: dose 0.25-0.5 µM, DDE = dose-dependent effect
# A549 [18] = assay: Induction of apoptosis in human A549 cells assessed as viable cells at 0.125 uM incubated for 48 hrs by Annexin V-FITC/propidium iodide staining based flow cytometry (reference value: 95.7%); format: functional; conditions: read-out: Activity
# A549 [19] = assay: Induction of apoptosis in human A549 cells assessed as early apoptotic cells at 0.125 uM incubated for 48 hrs by Annexin V-FITC/propidium iodide staining based flow cytometry (reference value: 0.11%); format: functional
# A549 [20] = assay: Induction of apoptosis in human A549 cells assessed as late apoptotic cells at 0.125 uM incubated for 48 hrs by Annexin V-FITC/propidium iodide staining based flow cytometry (reference value: 0.82%); format: functional
# A549 [21] = assay: Induction of apoptosis in human A549 cells assessed as necrotic cells at 0.125 uM incubated for 48 hrs by Annexin V-FITC/propidium iodide staining based flow cytometry (reference value: 3.36%); format: functional
# A549 [22] = assay: Induction of apoptosis in human A549 cells assessed as viable cells at 0.25 uM incubated for 48 hrs by Annexin V-FITC/propidium iodide staining based flow cytometry (reference value: 95.7%); format: functional; conditions: read-out: Activity
# A549 [23] = assay: Induction of apoptosis in human A549 cells assessed as early apoptotic cells at 0.25 uM incubated for 48 hrs by Annexin V-FITC/propidium iodide staining based flow cytometry (reference value: 0.11%); format: functional
# A549 [24] = assay: Induction of apoptosis in human A549 cells assessed as late apoptotic cells at 0.25 uM incubated for 48 hrs by Annexin V-FITC/propidium iodide staining based flow cytometry (reference value: 0.82%); format: functional
# A549 [25] = assay: Induction of apoptosis in human A549 cells assessed as necrotic cells at 0.25 uM incubated for 48 hrs by Annexin V-FITC/propidium iodide staining based flow cytometry (reference value: 3.36%); format: functional
# A549 [26] = assay: Induction of apoptosis in human A549 cells assessed as viable cells at 0.5 uM incubated for 48 hrs by Annexin V-FITC/propidium iodide staining based flow cytometry (reference value: 95.7%); format: functional; conditions: read-out: Activity
# A549 [27] = assay: Induction of mitochondrial membrane potential depolarization in human A549 cells assessed as proportion of cells with intact mitochondria by measuring red fluorescent J-aggregates at 0.5 uM incubated for 48 hrs by JC-1 staining based flow cytometry (reference value: 63.9%); format: functional
# A549 [28] = assay: Induction of apoptosis in human A549 cells assessed as increase in Bax protein expression at 0.25 to 4 uM incubated for 48 hrs by western blot analysis; format: functional, cell-based; conditions: dose 0.25-4 µM
# A549 [29] = assay: Induction of apoptosis in human A549 cells assessed as decrease in Bcl-2 protein expression at 0.25 to 4 uM incubated for 48 hrs by western blot analysis; format: functional, cell-based; conditions: dose 0.25-4 µM
# A549 [30] = assay: Induction of apoptosis in human A549 cells assessed as increase in cleaved caspase-9 expression incubated for 48 hrs by western blot analysis; format: functional, cell-based; conditions: dose 0.25-4 µM, DDE = dose-dependent effect
# A549 [31] = assay: Induction of apoptosis in human A549 cells assessed as increase in cleaved caspase-3 expression incubated for 48 hrs by western blot analysis; format: functional, cell-based; conditions: dose 0.25-4 µM, DDE = dose-dependent effect
# A549 [32] = assay: Induction of apoptosis in human A549 cells assessed as increase in cleaved PARP expression incubated for 48 hrs by western blot analysis; format: functional, cell-based; conditions: dose 0.25-4 µM, DDE = dose-dependent effect
# A549 [33] = assay: Induction of apoptosis in human A549 cells assessed as increase in cleaved caspase-8 expression at 0.25 to 4 uM incubated for 48 hrs by western blot analysis; format: functional, cell-based; conditions: dose 0.25-4 µM
# A549 [34] = assay: Anti-tumor activity against human A549 cells xenografted in iv dosed BALB/c mouse assessed as reduction in tumor growth administered every 2 days for 13 days; format: functional, organism-based; conditions: dose 2-8 mg/kg, time 13.0 day, DDE = dose-dependent effect
# A549 [35] = assay: Anti-tumor activity against human A549 cells xenografted in BALB/c mouse assessed as reduction in tumor volume at 2 to 8 mg/kg, iv administered every 2 days for 13 days; format: functional, organism-based; conditions: dose 2-8 mg/kg, time 13.0 day
# A549 [36] = assay: Anti-tumor activity against human A549 cells xenografted in BALB/c mouse assessed as reduction in tumor weight at 2 mg/kg, iv administered every 2 days for 13 days; format: functional; conditions: A549, 312 h, time 13 day
# A549 [37] = assay: Anti-tumor activity against human A549 cells xenografted in BALB/c mouse assessed as reduction in tumor weight at 4 mg/kg, iv administered every 2 days for 13 days; format: functional; conditions: A549, 312 h, time 13 day
# A549 [38] = assay: Anti-tumor activity against human A549 cells xenografted in BALB/c mouse assessed as reduction in tumor weight at 8 mg/kg, iv administered every 2 days for 13 days; format: functional; conditions: A549, 312 h, time 13 day
# [39] = Toxicity in BALB/c mouse xenografted with human A549 cells assessed as body weight loss at 2 to 8 mg/kg, iv administered every 2 days for 13 days; format: organism-based; conditions: in vivo, 312 h, dose 2-8 mg/kg, time 13 day
# A549 [40] = assay: cells; conditions: Homo sapiens, A549, 96 h
# Description: Cytotoxicity against human A549 cells assessed as inhibition of cell growth measured after 96 hrs by MTT assay
smiles,measurement,setting,value
CC1=C(O)C(=O)C=C2C1=CC=C1[C@@]2(C)CC[C@@]2(C)[C@@H]3C[C@](C)(C(=O)N4CCN(C(=O)CN5C(=O)S/C(=C\C6CC6)C5=O)CC4)CC[C@]3(C)CC[C@]12C,Activity,A549 [1],56%
same,Activity,A549 [2],60.2%
same,Activity,A549 [3],46.4%
same,Activity,A549 [4],42.3%
same,Activity,A549 [5],38.2%
same,Activity,A549 [6],6.96%
same,Activity,A549 [7],29.5%
same,Activity,A549 [8],3.73%
same,IC50 at 96 h,[9],3020 nM
same,selectivity ratio,[10],37.8
same,Ratio IC50,A549 [11],13.8
same,Stability,[12],Stable
same,Activity,A549 [13],Tde
same,Activity,A549 [14],Dde
same,Activity,A549 [15],Active
same,Activity,A549 [16],Active
same,Activity,A549 [17],Dde
same,viability at 0.125 µM,A549 [18],85.8%
same,Activity,A549 [19],1.9%
same,Activity,A549 [20],7.71%
same,Activity,A549 [21],4.59%
same,viability at 0.25 µM,A549 [22],71.8%
same,Activity,A549 [23],2.68%
same,Activity,A549 [24],19.6%
same,Activity,A549 [25],5.86%
same,viability at 0.5 µM,A549 [26],59.8%
same,Activity,A549 [27],51.7%
same,Activity,A549 [28],Active
same,Activity,A549 [29],Active
same,Activity,A549 [30],Dde
same,Activity,A549 [31],Dde
same,Activity,A549 [32],Dde
same,Activity,A549 [33],Active
same,Activity,A549 [34],Dde
same,Activity,A549 [35],Active
same,inhibition in vivo at 2 mg/kg,A549 [36],48.8%
same,inhibition in vivo at 4 mg/kg,A549 [37],64.4%
same,inhibition in vivo at 8 mg/kg,A549 [38],69.5%
same,Activity,[39],Non-Toxic
same,IC50,A549 [40],80 nM
